For this assay, the target named is T1, human Werner helicase (WRN-BV08, Uniprot Q14191, amino acids 517-1235 with L1074F point mutation) (Homo sapiens, UniProt Q14191, L1074F).
T1 construct: Uniprot Q14191, amino acids 517-1235 with L1074F point mutation; TEV-cleavable 8×His (C, cleaved yes); made in house; host or cells: Sf9 insect cells (baculovirus)
Description: WRN (BV08) ADP-Glo Assay. The class given is biochemical. Conditions: 0.15 nM WRN, 5 μM ATP, 0.1 nM DNA duplex, 15 min preincubation, 60 min at 25° C., pH 7.5, 1% DMSO; read-out: ADP-Glo_hWRN_IC50. The procedure, abridged: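 0.15 nM WRN (aa 517-1235, L1074F, Sf9-expressed, tag cleaved) preincubated 15 min at 25 °C with compound, then 5 μM ATP and 0.1 nM DNA duplex added for 60 min. Buffer: 20 mM Bicine pH 7.5, 1 mM MgCl2, 10 mM KCl, 1 mM TCEP; 1% DMSO. ADP-Glo luminescence; IC50 by 4-parameter fit.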

T1 sequence (Q14191 with tags, fused parts or gaps L1074F limits assumed): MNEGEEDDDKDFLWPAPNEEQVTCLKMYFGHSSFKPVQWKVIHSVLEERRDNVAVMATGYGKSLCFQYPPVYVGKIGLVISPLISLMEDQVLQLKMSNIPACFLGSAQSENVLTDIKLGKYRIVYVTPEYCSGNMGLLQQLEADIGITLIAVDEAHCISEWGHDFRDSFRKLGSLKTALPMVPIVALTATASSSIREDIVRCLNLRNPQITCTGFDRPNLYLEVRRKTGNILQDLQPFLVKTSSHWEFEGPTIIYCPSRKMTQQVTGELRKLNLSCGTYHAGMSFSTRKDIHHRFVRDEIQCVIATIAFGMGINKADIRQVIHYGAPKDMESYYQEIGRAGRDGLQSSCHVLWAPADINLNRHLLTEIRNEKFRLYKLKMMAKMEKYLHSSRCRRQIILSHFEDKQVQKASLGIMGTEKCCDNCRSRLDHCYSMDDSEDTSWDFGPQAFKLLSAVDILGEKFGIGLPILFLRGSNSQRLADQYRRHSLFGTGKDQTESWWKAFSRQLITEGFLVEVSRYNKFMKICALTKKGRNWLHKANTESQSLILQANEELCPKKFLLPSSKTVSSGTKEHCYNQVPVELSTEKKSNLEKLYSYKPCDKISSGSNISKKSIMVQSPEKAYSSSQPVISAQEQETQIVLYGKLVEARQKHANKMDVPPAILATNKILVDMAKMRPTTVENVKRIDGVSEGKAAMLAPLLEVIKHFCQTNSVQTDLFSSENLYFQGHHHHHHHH

`O=C(Cc1ccc(-c2ccc(F)cc2)cc1CO)N(Cc1ccncc1)C1C=CS(=O)(=O)C1` (centres unmarked) [I-350, N-(1,1-dioxo-2,3-dihydro-1lambda6-thiophen-3-yl)-2-[4′-fluoro-3-(hydroxymethyl)-[1,1′-biphenyl]-4-yl]-N-[(pyridin-4-yl)methyl]acetamide]: the IC50 was in the range of 10 to 50 µM.
On to `COc1cc(CN(C(=O)C(OCCO)c2ccc(-c3ccc(F)c(F)c3)cc2F)[C@@H]2C=CS(=O)(=O)C2)ccn1` (stereo partly drawn) [I-603, N-[(3R)-1,1-dioxo-2,3-dihydro-1lambda6-thiophen-3-yl]-2-(2-hydroxyethoxy)-N-[(2-methoxypyridin-4-yl)methyl]-2-{3,3′,4′-trifluoro-[1,1′-biphenyl]-4-yl}acetamide], for which the IC50 is less than 0.5 µM.
On to `COc1cc(CN(C(=O)Cn2cc3cc(C(F)(F)C(F)(F)F)ccc3n2)[C@@H]2C=CS(=O)(=O)C2)ccn1` [I-771, N-[(3R)-1,1-dioxo-2,3-dihydro-1lambda6-thiophen-3-yl]-N-[(2-methoxypyridin-4-yl)methyl]-2-[5-(1,1,2,2,2-pentafluoroethyl)-2H-indazol-2-yl]acetamide], for which the IC50 was less than 0.5 µM.
The value for `O=C(Cc1c[nH]c2ccccc12)N(Cc1ccncc1)C1C=CS(=O)(=O)C1` (centres unmarked) [I-493, N-(1,1-dioxo-2,3-dihydro-1lambda6-thiophen-3-yl)-2-(1H-indol-3-yl)-N-[(pyridin-4-yl)methyl]acetamide] was greater than 50 µM.
The value for `O=C(Cc1ccc(-n2cccc2)cc1)N(Cc1nc2c(s1)CCCC2)C1C=CS(=O)(=O)C1` (centres unmarked) [I-154, N-(1,1-dioxo-2,3-dihydro-1lambda6-thiophen-3-yl)-2-[4-(1H-pyrrol-1-yl)phenyl]-N-[(4,5,6,7-tetrahydro-1,3-benzothiazol-2-yl)methyl]acetamide] was 0.5 to 5 µM; that for `O=C(Cc1ccc(OC(F)(F)F)cc1)N(Cc1ccncc1)C1C=CS(=O)(=O)C1` (centres unmarked) [I-252, N-(1,1-dioxo-2,3-dihydro-1lambda6-thiophen-3-yl)-N-[(pyridin-4-yl)methyl]-2-[4-(trifluoromethoxy)phenyl]acetamide] was 5 to 10 µM; that for `COC(C(=O)N(Cc1ccnc(C(C)(C)O)c1)C1C=CS(=O)(=O)C1)c1ccc(-c2ccc(F)cc2)cc1F` (single isomer, unassigned) [I-10, (2R*)-2-{3,4′-difluoro-[1,1′-biphenyl]-4-yl}-N-[(3R**)-1,1-dioxo-2,3-dihydro-1lambda6-thiophen-3-yl]-N-{[2-(2-hydroxypropan-2-yl)pyridin-4-yl]methyl}-2-methoxyacetamide] was less than 0.5 µM.
The value for `O=C(CC12CC(c3ccccc3)(C1)C2)N(Cc1ccncc1)C1C=CS(=O)(=O)C1` (centres unmarked) [I-439, N-(1,1-dioxo-2,3-dihydro-1lambda6-thiophen-3-yl)-2-{3-phenylbicyclo[1.1.1]pentan-1-yl}-N-[(pyridin-4-yl)methyl]acetamide] was greater than 50 µM; that for `O=C(Cc1ccc(-n2cccc2)cc1)N(Cc1ccccc1F)C1C=CS(=O)(=O)C1` (centres unmarked) [I-257, N-(1,1-dioxo-2,3-dihydro-1lambda6-thiophen-3-yl)-N-[(2-fluorophenyl)methyl]-2-[4-(1H-pyrrol-1-yl)phenyl]acetamide] was 5 to 10 µM.
Regarding `CC(O)(c1cc(CN(C(=O)Cn2cc(-c3cc(F)c(F)c(F)c3)cn2)C2C=CS(=O)(=O)C2)ccn1)C(F)F` (centres unmarked) [I-827, N-{[2-(1,1-difluoro-2-hydroxypropan-2-yl)pyridin-4-yl]methyl}-N-(1,1-dioxo-2,3-dihydro-1lambda6-thiophen-3-yl)-2-[4-(3,4,5-trifluorophenyl)-1H-pyrazol-1-yl]acetamide], the IC50 was less than 0.5 µM.
As for `COc1cc(CN(C(=O)C(OCCC#N)c2ccc(-c3ccc(F)c(F)c3)cc2F)[C@@H]2C=CS(=O)(=O)C2)ccn1` (single isomer, unassigned) [I-735, (2R*)-2-(2-cyanoethoxy)-N-[(3R)-1,1-dioxo-2,3-dihydro-1lambda6-thiophen-3-yl]-N-[(2-methoxypyridin-4-yl)methyl]-2-{3,3′,4′-trifluoro-[1,1′-biphenyl]-4-yl}acetamide], the figure is 0.5 to 5 µM; as for `CN(C)C(=O)OC(C(=O)N(Cc1ccnc(C(C)(C)O)c1)[C@@H]1C=CS(=O)(=O)C1)c1ccc(-c2ccc(F)c(F)c2)cc1F` (single isomer, unassigned) [I-636], 10 to 50 µM; as for `O=C(C1CCc2cc(-n3cccc3)ccc21)N(Cc1ccncc1)C1C=CS(=O)(=O)C1` (centres unmarked) [I-477, N-(1,1-dioxo-2,3-dihydro-1lambda6-thiophen-3-yl)-N-[(pyridin-4-yl)methyl]-5-(1H-pyrrol-1-yl)-2,3-dihydro-1H-indene-1-carboxamide], greater than 50 µM.
The value for `O=C(Cc1ccc(-n2cccc2)cc1)N(Cc1ccncc1)C1C=CS(=O)(=O)C1` (single isomer, unassigned) [I-193] was 0.5 to 5 µM; that for `O=C(Cn1cc2ccc(C(F)(F)F)cc2n1)N(Cc1ccncc1)C1C=CS(=O)(=O)C1` (centres unmarked) [I-183, N-(1,1-dioxo-2,3-dihydro-1lambda6-thiophen-3-yl)-N-[(pyridin-4-yl)methyl]-2-[6-(trifluoromethyl)-2H-indazol-2-yl]acetamide] was 0.5 to 5 µM.
As for `N#CC1=CC(N(Cc2ccccc2)C(=O)Cc2ccc(-c3ccc(F)cc3)cc2)CS1(=O)=O` (centres unmarked) [I-728, N-benzyl-N-(5-cyano-1,1-dioxo-2,3-dihydro-1lambda6-thiophen-3-yl)-2-{4′-fluoro-[1,1′-biphenyl]-4-yl}acetamide], the IC50 lay in the range of 0.5 to 5 µM.
As for `O=C(C1CCc2cc(Br)ccc2O1)N(Cc1ccncc1)C1C=CS(=O)(=O)C1` (centres unmarked) [I-678, 6-bromo-N-(1,1-dioxo-2,3-dihydro-1lambda6-thiophen-3-yl)-N-[(pyridin-4-yl)methyl]-3,4-dihydro-2H-1-benzopyran-2-carboxamide], the figure is greater than 50 µM.
On to `O=C(Cc1ccc(-c2ccc(F)cc2)cc1C(F)(F)F)N(Cc1ccncc1)C1C=CS(=O)(=O)C1` (centres unmarked) [I-465, N-(1,1-dioxo-2,3-dihydro-1lambda6-thiophen-3-yl)-2-[4′-fluoro-3-(trifluoromethyl)-[1,1′-biphenyl]-4-yl]-N-[(pyridin-4-yl)methyl]acetamide], for which the IC50 was greater than 50 µM.
As for `COc1cc(CN(C(=O)Cc2ccc(-c3ccc(F)cc3O)nc2)C2C=CS(=O)(=O)C2)ccn1` (centres unmarked) [I-194, N-(1,1-dioxido-2,3-dihydrothiophen-3-yl)-2-(6-(4-fluoro-2-hydroxyphenyl)pyridin-3-yl)-N-((2-methoxypyridin-4-yl)methyl)acetamide], the figure is 5 to 10 µM; as for `O=C1CCCN1c1ccc(CC(=O)N(Cc2ccncc2)C2C=CS(=O)(=O)C2)cc1` (centres unmarked) [I-444, N-(1,1-dioxo-2,3-dihydro-1lambda6-thiophen-3-yl)-2-[4-(2-oxopyrrolidin-1-yl)phenyl]-N-[(pyridin-4-yl)methyl]acetamide], greater than 50 µM.
As for `O=C(c1c[nH]c2cc(-c3ccc(F)cc3)ccc12)N(Cc1ccncc1)C1C=CS(=O)(=O)C1` (centres unmarked) [I-423, N-(1,1-dioxo-2,3-dihydro-1lambda6-thiophen-3-yl)-6-(4-fluorophenyl)-N-[(pyridin-4-yl)methyl]-1H-indole-3-carboxamide], the figure is greater than 50 µM.
As for `O=C(Cc1ccc(C2CCC2)cc1)N(Cc1ccncc1)C1C=CS(=O)(=O)C1` (centres unmarked) [I-177, 2-(4-cyclobutylphenyl)-N-(1,1-dioxo-2,3-dihydro-1lambda6-thiophen-3-yl)-N-[(pyridin-4-yl)methyl]acetamide], the figure is 0.5 to 5 µM; as for `O=C(Cc1ccc(C(F)(F)F)cc1Br)N(Cc1ccncc1)C1C=CS(=O)(=O)C1` (centres unmarked) [I-293, 2-[2-bromo-4-(trifluoromethyl)phenyl]-N-(1,1-dioxo-2,3-dihydro-1lambda6-thiophen-3-yl)-N-[(pyridin-4-yl)methyl]acetamide], 10 to 50 µM; as for `O=C(Cc1ccc(-n2cccc2)cc1)N(Cc1ccccc1N1CCC(O)C1)C1C=CS(=O)(=O)C1` (centres unmarked) [I-372, N-(1,1-dioxo-2,3-dihydro-1lambda6-thiophen-3-yl)-N-{[2-(3-hydroxypyrrolidin-1-yl)phenyl]methyl}-2-[4-(1H-pyrrol-1-yl)phenyl]acetamide], greater than 50 µM.
For `COc1cc(CN(C(=O)C(OCC2CCOCC2)c2ccc(-c3ccc(F)c(F)c3)cc2F)[C@@H]2C=CS(=O)(=O)C2)ccn1` (stereo partly drawn) [I-811, N-[(3R)-1,1-dioxo-2,3-dihydro-1lambda6-thiophen-3-yl]-N-[(2-methoxypyridin-4-yl)methyl]-2-[(oxan-4-yl)methoxy]-2-{3,3′,4′-trifluoro-[1,1′-biphenyl]-4-yl}acetamide], the IC50 is 0.5 to 5 µM.
The value for `N#Cc1cc(-n2cccc2)ccc1CC(=O)N(Cc1ccncc1)C1C=CS(=O)(=O)C1` (centres unmarked) [I-468, 2-[2-cyano-4-(1H-pyrrol-1-yl)phenyl]-N-(1,1-dioxo-2,3-dihydro-1lambda6-thiophen-3-yl)-N-[(pyridin-4-yl)methyl]acetamide] was greater than 50 µM; that for `O=C(O)c1cccc(CN(C(=O)Cc2ccc(-n3cccc3)cc2)C2C=CS(=O)(=O)C2)c1` (centres unmarked) [I-352, 3-{[N-(1,1-dioxo-2,3-dihydro-1lambda6-thiophen-3-yl)-2-[4-(1H-pyrrol-1-yl)phenyl]acetamido]methyl}benzoic acid] was 10 to 50 µM.
As for `O=C(Cn1cc(-c2ccc(F)c(F)c2)cn1)N(Cc1nc(C2CC2)cs1)C1C=CS(=O)(=O)C1` (centres unmarked) [I-599, N-[(4-cyclopropyl-1,3-thiazol-2-yl)methyl]-2-[4-(3,4-difluorophenyl)-1H-pyrazol-1-yl]-N-(1,1-dioxo-2,3-dihydro-1lambda6-thiophen-3-yl)acetamide], the figure is less than 0.5 µM.
As for `Cc1ccn(-c2ccc(CC(=O)N(Cc3ccncc3)C3C=CS(=O)(=O)C3)cc2)c1` (centres unmarked) [I-355, N-(1,1-dioxo-2,3-dihydro-1lambda6-thiophen-3-yl)-2-[4-(3-methyl-1H-pyrrol-1-yl)phenyl]-N-[(pyridin-4-yl)methyl]acetamide], the figure is 10 to 50 µM.

Source of the values: patent publication US20260297070A1, “CYCLIC [COMPOUND LEFT OUT] WRN INHIBITORS” (Nimbus Wadjet, Inc., priority 2023, published 2026).
